Source: US10357501B2, “Treating conditions associated with increased eotaxin with 25-hydroxyvitamin D3” (DSM IP ASSETS B.V., priority 2010, dated 2019)

How the values were obtained:
[1] = in vivo; cited from earlier work
[2] = considered; no test described; cited from earlier work
[3] = Clinical trial: 25(OH)D levels after oral supplementation; conditions: female, human, in vivo
Procedure: The objective was studying and comparing the pharmacokinetic characteristics of vitamin D3 and 25-hydroxyvitamin D3 administered to humans. Equimolar quantities of both substances were investigated. The regimen was based on 20 μg/day (or its equivalent on a weekly basis) of 25-hydroxyvitamin D3. For comparative purposes, it was necessary to administer equimolar quantities of either vitamin D3 or 25-hydroxyvitamin D3. In respect to administration of vitamin D3, the dose was considered to be sufficient to overcome background variability and provide and efficacious dose to the participants. […]
Plasma concentrations of 25-hydroxyvitamin D3 (e.g., peak and steady state) were determined by obtaining samples from the subjects at various times after the dosage was ingested. For screening purposes and to establish baseline values, a blood sample was obtained prior to enrollment into the study and the clinical laboratory measured vitamin D3, 25-hydroxyvitamin D3, calcium, creatinine, albumin, and fasting glucose in the serum. […]
Twenty healthy postmenopausal women with 25-Hydroxyvitamin D3 levels below 25 ng/ml and a mean age of 61.5 years (SD ±7.2) were enrolled in this study. […] On 14 visits over 4 months, 25(OH)D levels, and 7 inflammation markers (eotaxin, IL-8, IL-12, IP-10, MCP-1, MP-1β, RANTES) were measured. […]

[4] = ingestion of 250 μg/day as a dietary supplement; cited from earlier work

In the case of 25-hydroxyvitamin D, the “blood concentration at which hypercalcemia may occur” value [1] is given as “greater than 375 nmol/L”.

For `C=C1CC[C@H](O)C/C1=C/C=C1\CCC[C@]2(C)[C@@H]([C@H](C)CCCC(C)(C)O)CC[C@@H]12` [25-Hydroxyvitamin D3, 25-hydroxyvitamin D3], the “activity relative to Vitamin D3” value [2] is listed as “approximately 3 ×”.

In the case of `C=C1CC[C@H](O)C/C1=C/C=C1\CCC[C@]2(C)[C@@H]([C@H](C)CCCC(C)C)CC[C@@H]12` [Vitamin D3, cholecalciferol], the “Mean 25(OH)D levels” value [3] is reported as 13.5 ng/mL.

For Vitamin D, the “blood concentration of 25-hydroxyvitamin D” value [4] is listed as “about 200 nmol/L”.
